Results reported in patent EP0054589B1, “Organic phosphoric acid ester derivatives, a process for preparing the same and insecticidal, miticidal or nematocidal compositions containing the same” (priority 1980, dated 1982).
Where two headings read alike, the source gives them in different places.

What was measured:
rice stem borer = test: Insecticidal effect on rice stem borer, 3rd-instar larvae (rice seedling dip); assay type: in vivo, Chilo suppressalis; details: after 72 hours, 25°C
Outline: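 Wettable-powder formulations were diluted in water to set concentrations, and rice seedlings were dipped in them. Ten 3rd-instar larvae were placed per capped cup with the treated seedlings and held at 25°C.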

apple leaf miner = test: Insecticidal effect on apple leaf miner (sprayed apple seedling); assay type: in vivo, Lithocolletis ringoniella; details: Phyllonorycter ringoniella, 336 h, 500 ppm, fourteen days after spraying
Outline: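 Wettable-powder suspensions were sprayed onto potted apple seedlings infested with newly hatched leaf miner larvae, then kept in a greenhouse.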

egg plant = test: Phytotoxicity observed visually in the mite test on egg plant; assay type: in vivo; parameters: key: —: None; +: Slightly toxic; ++: Toxic; +++: Strongly toxic; details: 500 ppm, observed visually on the 7th day after the application
Method: (§1) (A) An emulsifiable concentrate prepared as described in Formulation Example 1 and diluted to a predetermined concentration was sprayed using a spray-gun on a seedling of an egg plant placed in a pot of 12 cm in diametre to which plant carmine mites resistant to Kelthane were parasitic. After drying in air, seedlings were kept in a green house, and the number of living insects was recorded on the 7th, 14th, 21 st and 28th day from the day of application to determine the control effects. Three pots were used for each treatment. The control effect was assessed by the formula described in TEST EXAMPLE 7 above. Further, phytotoxicity was observed visually on the 7th day after the application.
as §1, with “(B) An” for “(A) An”, “Example 3” for “Example 1”, “in diameter” for “in diametre”, “in Test” for “in TEST”

tobacco cutworm [1] = test: Long-lasting insecticidal effect on tobacco cutworm (sprayed cabbage plantlet); assay type: in vivo, Prodenia litura; details: concentration 500 (unit not given), mortality after 48 hours; for Percent Mortality After Application 3rd Day: leaves cut on 3rd day; for Percent Mortality After Application 5th Day: leaves cut on 5th day; for Percent Mortality After Application 7th Day: leaves cut on 7th day; for Percent Mortality After Application 10th Day: leaves cut on 10th day; for Percent Mortality After Application 15th Day: leaves cut on 15th day
Outline: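 Cabbage plantlets sprayed with water-diluted emulsifiable concentrate and held in a greenhouse; leaves cut on days 3, 5, 7, 10 and 15 and fed to 3rd-instar larvae at 25°C. Percent mortality scored after 48 h; 3 replicates, 30 insects each.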

carmine mites = test: Miticidal effect on carmine mite (sprayed kidney bean seedling); assay type: in vivo, Tetranychus cinnabarius; details: 500 ppm
Method: An emulsifiable concentrate prepared as described in Formulation Example 1 and diluted to a predetermined concentration was sprayed using a spray-gun on a seedling of a kidney bean placed in a pot of 12 cm in diameter to which plant carmine mites were parasitic. After drying in air, seedlings were kept in a green house, and the number of living insects was recorded on the 7th, 14th, 21st and 28th day from the day of application to determine the control effects. Three pots were used for each treatment. The control effect was assessed by the following formula: [formula] • wherein Σ indicates sum and Cb, Tb, Cai and Tai have the following meanings. • Cb: Number of living mites in non-treated sample before application. • Tb: Number of living mites in treated sample before application. • Cai: Number of living mites in non-treated sample 7th, 14th, 21 st or 28th day from the application. • Tai: Number of living mites in treated sample 7th, 14th, 21st or 28th day from the application.

tobacco cutworm [2] = test: Insecticidal effect on tobacco cutworm (cabbage leaf dip); assay type: in vivo, Prodenia litura; details: after 48 hours, 25°C
Outline: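 Cabbage leaves dipped in water-diluted emulsifiable concentrate (two formulations, tests A and B) and air-dried were fed to 3rd-instar tobacco cutworm larvae at 25°C. Percent mortality scored after 48 hours; 3 replicates of 30 insects per compound.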

[3] = Table 1, 500 ppm, wettable powder as Formulation Example 5
[4] = Table 10, wettable powder as Formulation Example 5, read-out: Percent Morality (%)
[5] = Table 3, 500 ppm, emulsifiable concentrate as Formulation Example 1

Row | Structure (SMILES) | Percent Mortality (%) (rice stem borer; [3]) | mortality at 500 ppm (apple leaf miner; [4]) [%] | Phytotoxicit (egg plant; Table 13) | Percent Mortality After Application 3rd Day (tobacco cutworm [1]; Table 5) [%] | Percent Mortality After Application 5th Day (tobacco cutworm [1]; Table 5) [%] | Percent Mortality After Application 7th Day (tobacco cutworm [1]; Table 5) [%] | Percent Mortality After Application 10th Day (tobacco cutworm [1]; Table 5) [%] | Percent Mortality After Application 15th Day (tobacco cutworm [1]; Table 5) [%] | Control Effect (%) (carmine mites) | Number of Living Mites after Application 7th Day (carmine mites) | Number of Living Mites after Application 14th Day (carmine mites) | Number of Living Mites after Application 21st Day (carmine mites) | Number of Living Mites after Application 28th Day (carmine mites) | Percent Mortality (%) (tobacco cutworm [2]; [5]) | other results
1 | CCCSP(=O)(OC)Oc1ccc2c(c1)OC(C)=CC2(C)C (stereo not drawn) [Compound No. 1] | 100 | 100 | — | 100 | 100 | 100 | 100 | 100 | 99.6 | 0 | 0 | 0 | 3 | 100 | 
2 | CCCSP(=O)(OCC)Oc1ccc2c(c1)OC(C)=CC2(C)C (stereo not drawn) [Compound No. 2, O-ethyl-S-propyl-O-(2,4,4-trimethyl-1,4-benzopyran-7-yl)phosphorothioate] | 100 | 100 | — | 100 | 100 | 100 | 100 | 100 | 99.0 | 0 | 0 | 0 | 11 | 100 | 
3 | CCCSP(=S)(OC)Oc1ccc2c(c1)OC(C)=CC2(C)C (stereo not drawn) [Compound No. 9, 0-methyl-S-propyl-(2,4,4-trimethyl-1,4-benzopyran-7-yl)phosphorodithioate] | 100 | 100 | — | 100 | 100 | 100 | 100 | 93.3 | 99.0 | 0 | 0 | 0 | 8 | 100 | 
4 | CCCSP(=S)(OCC)Oc1ccc2c(c1)OC(C)=CC2(C)C (stereo not drawn) [Compound No. 10] | 100 | 100 | — | 100 | 100 | 100 | 100 | 96.7 | 97.6 | 0 | 0 | 2 | 19 | 100 | Phytotoxicit (egg plant; Table 14): —
5 | CCCSP(=O)(OCC)Oc1ccc2c(c1)OC(C)(C)C=C2C (stereo not drawn) [Compound No. 20, O-ethyl-S-propyl-0-(2,2,4-trimethyl-1,2-benzopyran-7-yl)phosphorothioate] | 100 | 100 |  | 100 | 100 | 100 | 100 | 33.3 |  |  |  |  |  | 100 | Percent Mortality (%) (rice stem borer; Table 1, 100 ppm, wettable powder as Formulation Example 5): 100%; Percent Mortality (%) (rice stem borer; Table 2, 100 ppm, wettable powder as Formulation Example 7): 100%; mortality at 500 ppm (apple leaf miner; Table 11, wettable powder as Formulation Example 7, read-out: Percent Mortality (%)): 96.6%; Percent Mortality After Application 3rd Day (tobacco cutworm [1]; Table 6): 100%; Percent Mortality After Application 5th Day (tobacco cutworm [1]; Table 6): 100%; Percent Mortality After Application 7th Day (tobacco cutworm [1]; Table 6): 100%; Percent Mortality After Application 10th Day (tobacco cutworm [1]; Table 6): 90.0%; Percent Mortality After Application 15th Day (tobacco cutworm [1]; Table 6): 46.7%; Percent Mortality After Application Immediately after Application (tobacco cutworm [1]; Table 6): 100%; Percent Mortality (%) (tobacco cutworm [2]; Table 4, 100 ppm, emulsifiable concentrate as Formulation Example 3): 100%
